Reference: patent publication US20080210174A1, “Increasing the Protein Concentration of Animal Organisms” (BASF AKTIENGESELLSCHAFT, priority 2004, published 2008)

Legend:
[1] = test system: mice (type CD-1M (ICR) BR); test: Feeding experiment in mice: whole body crude protein, crude fat, P/F quotient, feed intake, weight gain; assay type: in vivo; details: 21 days; for Body fat / Body protein / P/F quotient: mice
Procedure: 1. Determination of Whole Body Crude Protein • 1) Method for determining the content of crude protein in mice from the nitrogen content, modified according to Kjeldahl (Kjeldahl, J.: Z. anal. Chem. 22, 366-382. 1883). • 2) Principle • The experimental animals were slaughtered and after removing the gastrointestinal tract, the weight of the animals was determined by weighing. The experimental animals were then shock-frozen in liquid nitrogen and homogenized. The resultant samples were subjected to wet digestion. The acidic digest was made alkaline with sodium hydroxide solution. The ammonia released was removed by distillation and collected in a defined amount of sulfuric acid, the excess of which was titrated with sodium hydroxide solution. • 3) Reagents • 3.1) Potassium sulfate, analytical grade • 3.2) Catalyst: copper(II) oxide, CuO, analytical grade, or crystalline copper sulfate, CuSO4.5H2O, analytical grade, or mercury, or mercury oxide, HgO, analytical grade. • 3.3) Sulfuric acid; analytical grade, D 1.84 • 3.4) Pumice stone, granulated, washed with hydrochloric acid and ignited • 3.5) Zinc, analytical grade, granulated • 3.6) Sulfuric acid, 0.1 N; • 3.7) Sulfuric acid, 0.5 N • 3.8) Methyl red indicator: 300 mg of methyl red are dissolved in 100 ml of ethanol, from 94 to 96% strength (VN). • 3.9) Sodium hydroxide solution, analytical grade, 40% strength (WN) • 3.10) Sodium sulfide solution, analytical grade, saturated • 3.11) Sodium thiosulfate solution, 8% strength (WN), Na2S2O3.5H2O, analytical grade • 3.12) Sodium hydroxide solution, 0.1 N; • 3.13) Sodium hydroxide solution, 0.25 N • 4) Apparatus • Digestion apparatus and distillation apparatus according to Kjeldahl (see above); • 5) Digestion • 1 g of the sample was weighed out accurately to 1 mg and placed in the flask of the digestion apparatus. 10 g of potassium sulfate […], a suitable amount of the catalyst (3.2) (from 0.3 to 0.4 g of copper oxide or from 0.9 to 1.2 g of copper sulfate or one drop of mercury or from 0.6 to 0.7 g of mercury oxide), 25 ml of sulfuric acid (3.3) and a few grains of pumice (3.4) were added and the flask contents were mixed. The flask was first heated moderately, then, with shaking from time to time, heated up to carbonization of the substance and disappearance of the foam, and finally intensively up to the uniform boiling of the liquid. Superheating of the flask walls and deposition of organic parts onto the flask walls was avoided. As soon as the solution was clear and colorless (light green when a copper-containing catalyst is used), this was kept boiling for a further 1 hour; thereafter it was allowed to cool. • 6) Distillation • With continuous swirling, from 250 to 356 ml of water were added with care, in which case the sulfates should dissolve completely. The mixture was allowed to cool; then some zinc granules (3.5) were added. Between 10 ml and 25 ml of sulfuric acid (3.6) or (3.7), depending on the expected nitrogen content, and a few drops of methyl red indicator (3.8) were added to the distillation apparatus collection flask. The flask was connected to the condenser of the distillation apparatus and its outermost end was lowered at least 1 cm deep into the liquid of the collection flask. 100 ml of sodium hydroxide solution (3.9) were slowly charged via the stopcock funnel into the distillation flask. When a mercury catalyst is used, in addition, 10 ml of sodium sulfide solution (3.10) or 25 ml of sodium thiosulfate solution (3.11) were added to the distillation flask. The flask is heated in such a manner that, in 30 min, about 150 ml of the liquid had distilled off. After the expiry of this time, the neutral reaction of the overhead distillate was controlled using litmus paper. If the reaction was alkaline, the distillation was continued. […] During the distillation operation, the contents of the collection flask were swirled from time to time and its color was observed. […]

[2] = test system: conversion of carbohydrates to fatty acids; details: rats on a low-fat, carbohydrate-rich diet; cited from earlier work
[3] = molecular target: T1, human cytosol malate enzyme (Homo sapiens, UniProt P48163); details: cited from earlier work
T1 sequence (P48163 1-572): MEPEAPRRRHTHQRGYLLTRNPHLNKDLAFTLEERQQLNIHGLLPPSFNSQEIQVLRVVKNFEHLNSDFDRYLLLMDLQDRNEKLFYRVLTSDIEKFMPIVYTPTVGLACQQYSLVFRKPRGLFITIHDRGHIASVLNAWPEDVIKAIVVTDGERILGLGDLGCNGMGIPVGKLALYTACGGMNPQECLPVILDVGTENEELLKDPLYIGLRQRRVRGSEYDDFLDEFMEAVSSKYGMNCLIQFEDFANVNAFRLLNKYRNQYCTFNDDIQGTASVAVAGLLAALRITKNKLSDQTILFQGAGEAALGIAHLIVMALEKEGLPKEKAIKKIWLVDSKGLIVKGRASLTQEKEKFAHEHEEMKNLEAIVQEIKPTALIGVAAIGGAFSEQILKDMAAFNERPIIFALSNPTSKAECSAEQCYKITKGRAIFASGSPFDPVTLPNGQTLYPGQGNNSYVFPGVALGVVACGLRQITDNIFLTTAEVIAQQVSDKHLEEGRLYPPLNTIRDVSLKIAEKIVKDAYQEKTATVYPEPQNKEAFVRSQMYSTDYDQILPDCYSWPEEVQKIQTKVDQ

[4] = molecular target: human mitochondrial malate enzyme (Homo sapiens, UniProt P23368); details: cited from earlier work
Chain of human mitochondrial malate enzyme (P23368 19-584): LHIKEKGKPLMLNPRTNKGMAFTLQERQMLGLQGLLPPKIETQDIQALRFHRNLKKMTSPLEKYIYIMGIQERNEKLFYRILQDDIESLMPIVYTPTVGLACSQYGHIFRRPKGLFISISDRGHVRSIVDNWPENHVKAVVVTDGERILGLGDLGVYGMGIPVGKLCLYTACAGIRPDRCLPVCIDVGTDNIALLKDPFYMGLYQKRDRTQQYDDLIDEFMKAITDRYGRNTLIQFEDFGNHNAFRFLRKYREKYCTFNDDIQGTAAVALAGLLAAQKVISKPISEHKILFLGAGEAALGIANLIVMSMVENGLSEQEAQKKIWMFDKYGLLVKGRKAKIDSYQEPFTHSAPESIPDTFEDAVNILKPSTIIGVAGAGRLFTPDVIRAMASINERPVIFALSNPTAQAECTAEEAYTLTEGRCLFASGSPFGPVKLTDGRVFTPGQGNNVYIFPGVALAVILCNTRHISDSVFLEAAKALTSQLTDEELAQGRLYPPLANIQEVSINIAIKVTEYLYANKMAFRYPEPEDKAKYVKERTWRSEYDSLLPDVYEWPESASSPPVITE

malate enzyme = malate enzyme from Mucor circinelloides; cited from earlier work
malate dehydrogenase = malate dehydrogenase from Mucor circinelloides; cited from earlier work
ATP:citrate lyase = ATP:citrate lyase from Mucor circinelloides; cited from earlier work
Mucor circinelloides = details: fungus Mucor circinelloides; cited from earlier work
[5] = animals fed with tartronic acid (0.25% and 0.75% of feed) vs control

## O=C(O)C(O)C(=O)O [Tartronic acid, tartronic acid]
[1]; 0.25% by weight of the feed
  Body fat: 20.25 % by weight of body weight
  Body protein: 65.93 % by weight of body weight
  P/F quotient: 3.53
[1]; 0.75% by weight of the feed
  Body fat: 20.65 % by weight of body weight
  Body protein: 66.04 % by weight of body weight
  P/F quotient: 3.28
[1]; [5]
  P/F quotient, change: increase in the P/F quotient
  PPTW (percentage protein of total weight), change: increase in the PPTW
[2]
  effect on conversion of carbohydrates to fatty acids: inhibits the conversion of carbohydrates to fatty acids
[3]
  inhibitory activity on enzyme: direct inhibitory activity
[4]
  inhibitory activity on enzyme: direct inhibitory activity
Malate enzyme
  inhibitory activity on enzyme: direct inhibitory activity
Malate dehydrogenase
  inhibitory activity on enzyme: direct inhibitory activity
ATP:citrate lyase
  inhibitory activity on enzyme: direct inhibitory activity
Mucor circinelloides
  in vivo inhibitory activity, effect on lipid metabolism: not sufficient to have a detectable effect on lipid metabolism
